Laboratory results taken from patent publication US10080789B2, “Programming of cells for tolerogenic therapies” (President and Fellows of Harvard College, priority 2009, dated 2018).
Where no end group is shown, it is not given here.

What was measured:
[1] = tested on: mononuclear cells isolated from the bone marrow (BM) of C57BL/6 mice; test: In vitro induction of DC from bone marrow mononuclear cells, phenotype and cytokine production; type: cell-based; conditions: for CD11c+/CD86+ in total BM cells: 7 day incubation of BM cells with GM-CSF with or without the named factor; for expression of the proinflammatory cytokines IL-6 and IL-12 by induced DC: GM-CSF in presence of named factor, bacterial stimulation, vs DC induced by GM-CSF alone
Source text: FIGS. 5F (Table 1) and 5A-E reflect the potency of a material system that delivers TSLP and GM-CSF to PD lesion in induction of tolerogenic DC. […] The surface phenotypes of CD11c+DC in the BM culture were monitored by flow cytometry and the proportionality of each phenotype is expressed as a percent (%) of the total mononuclear cells (MNC) (FIG. 5F, Table 1).
The present invention provides for a material-based local application of GM-CSF with appropriate DC influencing factors that leads to tolerogenic DCs (tDCs), and subsequent enrichment of iTreg cells. Candidate biofactors include thymic stromal lymphopoietin (TSLP), vasoactive intestinal peptide (VIP), and transforming growth factor-beta (TGF-β). Screening is based on the induced DC's anti-inflammatory properties. […] Overall, these observations that the combination of GM-CSF with TSLP efficiently induces DC with an anti-inflammatory phenotype.

JAWSII DCs = test: JAWSII DC recruitment, proliferation, emigration and activation in vitro (transwell); type: cell-based
Description: FIGS. 3A-D show data related to the concentration dependent effects of GM-CSF on DC proliferation, recruitment, activation and emigration in vitro. […] Migration counts measured at 12 hours. FIG. 3B is the effects of GM-CSF concentration on the proliferation of JAWSII DCs. 0 (white bar), 50 (grey bar), and 500 ng/ml (black bar) of GM-CSF. […] Migration counts taken at 6 hours. FIG. 3D are representative photomicrographs of TNF-α and LPS stimulated JAWSII DCs cultured in 5-50 or 500 ng/ml GM-CSF and stained for the activation markers MHCII and CCR7. Scale bar in FIG. 3D—20 μm. Values in FIGS. 3A-C represent mean and standard deviation (n=4); *P<0.05; **P<0.01
Migration assays are performed with 6.5 mm transwell dishes (Costar, Cambridge, Mass.) with a pore size of 5 μm. The effects of GM-CSF and TSLP, (Invivogen, San Diego, Calif.) on the migration of DCs are assessed by placing recombinant murine GM-CSF and TSLP in the bottom wells and 5×10^5 DCs in the top wells. To assess the effects of GM-CSF and TSLP on DC activation, cells are cultured with bacterial stimulation (fixed Aa, fixed P. gingivalis, Aa-LPS or Pg-LPS along) with various concentrations of TSLP and GM-CSF for 24 hours and then the cells are washed and fixed in 10% formalin. The cells are prepared for fluorescence immunohistochemistry as per below, and examined using fluorescent microscopy (Olympus, Center Valley, Pa.). Cells are also analyzed by FACS, and gated according to positive stains using isotype controls, and the percentage of cells staining positive for each surface antigen will be recorded.

CD11c(+)CD86(+) DCs = test: In vivo DC recruitment to subcutaneously implanted GM-CSF loaded polymers; design: species or system C57BL/6J mice; conditions: polymers loaded with 3 μg GM-CSF
Source text: (§1) Numbers in FACS plots indicate the percentage of the cell population positive for both markers. FIG. 4D is the percentage of total cells that were positive for the DC markers CD11c and CD86, in blank (-∘-) and GM-CSF (-●-) loaded polymers as a function of time post implantation. […] Scale bar—500 μm. Values in FIGS. 4A, 4D, 4E, and 4F represent mean and standard deviation (n=4 or 5); *P<0.05; **P<0.01.
(§2) The polymer delivery vehicle presents GM-CSF in a defined spatiotemporal manner in vivo, following introduction into the tissue of interest. […]
Gels with various combinations of factors are injected into gingival of mice. […] To analyze DC recruitment, gels and surrounding tissue are excised at various time-points and the tissue digested into single cell suspensions using a collagenase solution (Worthingtion, 250 U/ml) that was agitated at 37° C. for 45 min The cell suspensions are then poured through a […] cell strainer to isolate cells from gel particles and the cells are pelleted and washed with cold PBS and counted using a Z2 coulter counter (Beckman Coulter). […] Cells are gated according to positive labels using isotype controls, and the percentage of cells staining positive for each surface antigen is recorded.

[2] = Release profile of GM-CSF from polymer delivery vehicle; type: physicochemical; conditions: within the first 5 days; then slow sustained release over next 10 days
Source text: as §1, §2
To determine the efficiency of GM-CSF, TSLP, and pDNA incorporation and the kinetics of release, ^125I-labeled factors (Perkin Elmer) are utilized as a tracer, and gels and placed in Phosphate Buffer Solution (PBS) (37° C.). At various time points, the PBS release media is collected and amount of ^125I-factor released from the scaffolds is determined at each time point using a gamma counter and normalizing to the total ^125I-factor incorporated into the gels. To asses the retention of GM-CSF bioactivity, loaded gels are placed in the top wells of 6.5 mm transwell dishes (Costar, Cambridge, Mass.) with a pore size of 3 μm and the proliferation of JAWS II cells (DC cell line) cultured in the bottom wells is evaluated at various time points using cell counts from a hemacytometer. […]

[3] = molecular target: T1, T cell-specific potassium channel Kv1.3 (Rattus norvegicus, UniProt P15384); conditions: cited from earlier work
T1 construct: endogenous in cells
T1 sequence (P15384 whole entry): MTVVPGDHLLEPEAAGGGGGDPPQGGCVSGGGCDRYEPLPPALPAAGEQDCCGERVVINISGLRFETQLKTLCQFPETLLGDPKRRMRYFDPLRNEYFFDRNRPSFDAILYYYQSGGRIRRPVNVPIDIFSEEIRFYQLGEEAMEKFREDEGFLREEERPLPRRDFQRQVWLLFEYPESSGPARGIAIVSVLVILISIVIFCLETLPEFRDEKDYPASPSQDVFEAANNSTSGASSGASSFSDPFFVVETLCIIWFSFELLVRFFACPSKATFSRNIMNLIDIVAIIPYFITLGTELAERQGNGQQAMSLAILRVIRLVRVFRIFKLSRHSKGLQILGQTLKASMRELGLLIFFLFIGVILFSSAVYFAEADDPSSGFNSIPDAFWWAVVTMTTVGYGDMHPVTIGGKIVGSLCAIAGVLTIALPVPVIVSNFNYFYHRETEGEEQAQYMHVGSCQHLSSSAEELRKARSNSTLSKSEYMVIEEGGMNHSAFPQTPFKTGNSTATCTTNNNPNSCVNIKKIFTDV

transforming growth factor-beta [TGF-b]
CD11c+/CD86+ in total BM cells [1]: 10.5%
expression of the proinflammatory cytokines IL-6 and IL-12 by induced DC [1]: diminished expression

vasoactive intestinal peptide (HSDAVFTDNYTRLRKQMAVKKYLNSILN; ends and bridges not checked; UniProt P01282 125-152, looked up) [VIP, candidate biofactor tested with GM-CSF]
IL-10 production by induced DC ([1]; BM cells with GM-CSF and named factor (100 ng/ml), 7 days, bacterial challenge): did not up-regulate
expression of the proinflammatory cytokines IL-6 and IL-12 by induced DC [1]: diminished expression

granulocyte-macrophage colony stimulating factor [GM-CSF]
DC recruitment and proliferation (JAWSII DCs; JAWSII DCs in vitro): enhanced DC recruitment and proliferation in a dose-dependent manner
DC activation via TNF-α and LPS stimulation (MHCII and CCR7 expression) (JAWSII DCs; high concentrations of GM-CSF): suppressed DC activation
GM-CSF concentrations that inhibited DC migration toward the LN-derived chemokine CCL19 (JAWSII DCs; transwell, 300 ng/ml CCL19, counts at 6 hours): > 100 ng/mL
CD11c+/CD86+ in total BM cells [1]: 14.7%
total cellular infiltration at the site (CD11c(+)CD86(+) DCs; dorsal subcutaneous, day-14, vs control): significantly enhanced
total cell number and percentage of infiltrating cells that were CD11c(+)CD86(+) DCs (CD11c(+)CD86(+) DCs; subcutaneous): increased
bioactive GM-CSF load released [2]: approximately 60%

Kaliotoxin
RANKL production by activated rat T cells [3]: inhibits

thymic stromal lymphopoietin [TSLP]
expression of the proinflammatory cytokines IL-6 and IL-12 by induced DC [1]: diminished expression
